Data taken from patent US20240294522A1 (Lead Discovery Center GmbH, priority 2021, published 2024).

Tests used:
GRK2 = molecular target: T1, GRK2 (Homo sapiens, UniProt P25098); experiment: Lance Kinase Activity Assay, GRK2; settings: biochemical Lance kinase activity assay; class symbols A-F; read-out: GRK2 LANCE Assay (IC-50)
T1 construct: purchased Thermo Scientific
T1 sequence (P25098 1-689): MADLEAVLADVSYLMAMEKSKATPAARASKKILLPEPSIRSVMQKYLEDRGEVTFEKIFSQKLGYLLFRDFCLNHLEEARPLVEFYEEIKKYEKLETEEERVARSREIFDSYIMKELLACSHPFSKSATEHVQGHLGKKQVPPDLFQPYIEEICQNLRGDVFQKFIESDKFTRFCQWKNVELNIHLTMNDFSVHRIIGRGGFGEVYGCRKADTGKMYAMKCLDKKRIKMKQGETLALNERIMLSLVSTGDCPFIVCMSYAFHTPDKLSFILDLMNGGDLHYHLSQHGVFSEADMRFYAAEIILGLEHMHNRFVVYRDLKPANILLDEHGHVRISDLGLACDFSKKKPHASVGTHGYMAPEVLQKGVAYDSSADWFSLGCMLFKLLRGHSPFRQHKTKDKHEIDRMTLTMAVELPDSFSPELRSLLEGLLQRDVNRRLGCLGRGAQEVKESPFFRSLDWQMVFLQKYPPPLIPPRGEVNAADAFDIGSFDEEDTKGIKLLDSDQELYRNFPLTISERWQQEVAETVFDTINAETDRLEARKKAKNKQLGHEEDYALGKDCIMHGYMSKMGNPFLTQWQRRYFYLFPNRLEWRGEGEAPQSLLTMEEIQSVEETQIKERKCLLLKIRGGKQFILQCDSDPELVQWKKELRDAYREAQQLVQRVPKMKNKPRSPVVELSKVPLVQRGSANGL
Experimental: (§1) This protocol describes how the Lance Kinase Activity Assay was performed to determine IC50 values of compounds of general formula (I) against GRK5 and GRK2.
(§2) The principle behind this enzymatic assay is based upon the phosphorylation of the Ulight-peptide substrate. It is detected by using a specific EU-labeled anti-phospho peptide antibody. The binding of the Eu labeled anti-phospho peptide antibody to the phosphorylated ULight labeled peptide gives rise to a FRET-signal. Binding of an inhibitor to the kinase prevents phosphorylation of the Ulight-substrate, resulting in a loss of FRET. In tables 2 and 3 the relevant information for these two LANCE assays is summarized.
(§3) For every sample, 2 μl of assay buffer (50 mM HEPES pH 7,5, 10 mM MgCL2, 1 mM EGTA 0,01% Tween 20, 1% DMSO, 2 mM DTT) were transferred into a suitable assay plate (e.g. Corning #3673). Compounds were added in a concentration range from 10 μM to 0.0025 μM using an acoustic dispenser (Echo520 from Labcycte, San Jose, USA) equipped with Echo Dose Response software. After that 6 μl of kinase-substrate mix was added. Reaction was started by addition of 2 μl ATP working solution and mixed using a Bioshake 5000 microplate shaker (Q Instruments, Jena, Germany).
(§4) After 1 h incubation at room temperature the reaction was stopped with 10 μl detection mix containing the Eu-labeled phosphospecific antibody and 10 mM EDTA. After a second incubation period of 1 h at room temperature the FRET signal was measured at 340 nm excitation, 665 nm and 615 nm emission (for the ULight-substrate and Eu-AB, respectively) with an Envision microplate reader (Perkin Elmer, Waltham, MA, USA) with 50 μs delay and 300 μs integration time. IC50 values were determined from the sigmoidal dose response curves with the software Quattro Workflow (Quattro GmbH, Munich, Germany).
(§5) Inhibition is indicated as IC50 [nM] (“−”=not measured). Compounds having an activity designated as “A” provided an IC50≤50 nM; compounds having an activity designated as “B” provided an 50 nM<IC50≤100 nM; compounds having an activity designated as “C” provided an 100 nM<IC50≤500 nM; compounds having an activity designated as “D” provided an 500 nM<IC50≤1000 nM; compounds having an activity designated as “E” provided an 1000 nM<IC50≤10000 nM; and compounds having an activity designated as “F” provided an IC50>10000 nM.

GRK5 = molecular target: T2, GRK5 (Homo sapiens, UniProt P34947); experiment: Lance Kinase Activity Assay, GRK5; settings: biochemical Lance kinase activity assay; class symbols A-F; read-out: GRK5 LANCE Assay (IC-50)
T2 construct: purchased Thermo Scientific
T2 sequence (P34947 whole entry): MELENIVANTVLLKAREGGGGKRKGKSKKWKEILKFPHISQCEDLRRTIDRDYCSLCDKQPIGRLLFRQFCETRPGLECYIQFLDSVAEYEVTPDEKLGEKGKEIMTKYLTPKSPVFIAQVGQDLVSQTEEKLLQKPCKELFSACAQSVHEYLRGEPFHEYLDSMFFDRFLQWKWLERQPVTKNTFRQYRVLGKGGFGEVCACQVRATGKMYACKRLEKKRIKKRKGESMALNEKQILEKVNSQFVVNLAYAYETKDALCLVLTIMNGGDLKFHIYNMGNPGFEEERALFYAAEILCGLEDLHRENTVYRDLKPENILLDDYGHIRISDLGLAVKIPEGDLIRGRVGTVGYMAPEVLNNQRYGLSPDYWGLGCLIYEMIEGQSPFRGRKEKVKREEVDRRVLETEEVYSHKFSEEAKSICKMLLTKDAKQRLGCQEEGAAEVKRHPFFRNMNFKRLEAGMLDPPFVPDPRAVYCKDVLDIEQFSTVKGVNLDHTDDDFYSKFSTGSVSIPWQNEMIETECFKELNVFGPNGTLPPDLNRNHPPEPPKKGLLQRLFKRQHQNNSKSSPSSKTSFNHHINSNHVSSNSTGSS
Experimental: as §1, §2, §3, §4, §5

SMILES | IC50 (GRK2) [nM] | IC50 (GRK5) [nM]
N#C/C(=C\c1c[nH]c2ncccc12)C(=O)NCc1ccc(Cl)cc1 [Example 58, (E)-N-(4-chlorobenzyl)-2-cyano-3-(1H-pyrrolo[2,3-b]pyridin-3-yl)acrylamide] | 1000 to 10000 | 100 to 500
N#C/C(=C\c1c[nH]c2ncccc12)C(=O)NCc1ccc(C(F)(F)F)cc1 [Example 59, (E)-2-cyano-3-(1H-pyrrolo[2,3-b]pyridin-3-yl)-N-(4-(trifluoromethyl)benzyl)acrylamide] | 1000 to 10000 | 1000 to 10000
N#C/C(=C\c1c[nH]c2ncccc12)C(=O)NCc1cccc(Cl)c1 [Example 60, (E)-N-(3-chlorobenzyl)-2-cyano-3-(1H-pyrrolo[2,3-b]pyridin-3-yl)acrylamide] | 100 to 500 | 100 to 500
N#C/C(=C\c1c[nH]c2ncccc12)C(=O)NCc1cccc(C(F)(F)F)c1 [Example 61, (E)-2-cyano-3-(1H-pyrrolo[2,3-b]pyridin-3-yl)-N-(3-(trifluoromethyl)benzyl)acrylamide] | 1000 to 10000 | 500 to 1000
N#C/C(=C\c1c[nH]c2ncccc12)C(=O)NCc1ccccc1Cl [Example 62, (E)-N-(2-chlorobenzyl)-2-cyano-3-(1H-pyrrolo[2,3-b]pyridin-3-yl)acrylamide] | 1000 to 10000 | 100 to 500
CC(NC(=O)/C(C#N)=C/c1c[nH]c2ncccc12)c1ccc(F)cc1 (stereo not shown) [Example 63, (E)-2-cyano-N-(1-(4-fluorophenyl)ethyl)-3-(1H-pyrrolo[2,3-b]pyridin-3-yl)acrylamide] | 100 to 500 | 100 to 500
C[C@@H](NC(=O)/C(C#N)=C/c1c[nH]c2ncccc12)c1ccccc1 [Example 64, (R,E)-2-cyano-N-(1-phenylethyl)-3-(1H-pyrrolo[2,3-b]pyridin-3-yl)acrylamide] | 100 to 500 | 50 to 100
N#C/C(=C\c1c[nH]c2ncccc12)C(=O)NCc1ccc(F)cc1F [Example 65, (E)-2-cyano-N-(2,4-difluorobenzyl)-3-(1H-pyrrolo[2,3-b]pyridin-3-yl)acrylamide] | 1000 to 10000 | 1000 to 10000
N#C/C(=C\c1c[nH]c2ncccc12)C(=O)NCc1ccc(F)c(F)c1 [Example 66, (E)-2-cyano-N-(3,4-difluorobenzyl)-3-(1H-pyrrolo[2,3-b]pyridin-3-yl)acrylamide] | 100 to 500 | 100 to 500
N#C/C(=C\c1c[nH]c2ncccc12)C(=O)NCc1cc(F)cc(F)c1 [Example 67, (E)-2-cyano-N-(3,5-difluorobenzyl)-3-(1H-pyrrolo[2,3-b]pyridin-3-yl)acrylamide] | 500 to 1000 | 500 to 1000
CC[C@@H](NC(=O)/C(C#N)=C/c1c[nH]c2ncccc12)c1ccccc1 [Example 68, (R,E)-2-cyano-N-(1-phenylpropyl)-3-(1H-pyrrolo[2,3-b]pyridin-3-yl)acrylamide] | 100 to 500 | 100 to 500
C[C@@H](NC(=O)/C(C#N)=C/c1c[nH]c2ncccc12)c1ccc(F)cc1 [Example 69, (R,E)-2-cyano-N-(1-(4-fluorophenyl)ethyl)-3-(1H-pyrrolo[2,3-b]pyridin-3-yl)acrylamide] | 50 to 100 | ≤ 50
C[C@@H](NC(=O)/C(C#N)=C/c1c[nH]c2ncccc12)c1ccc(Cl)cc1 [Example 70, (R,E)-N-(1-(4-chlorophenyl)ethyl)-2-cyano-3-(1H-pyrrolo[2,3-b]pyridin-3-yl)acrylamide] | 500 to 1000 | 100 to 500
N#C/C(=C\c1c[nH]c2ncc(C(F)(F)F)cc12)C(=O)NCc1ccccc1 [Example 71, (E)-N-benzyl-2-cyano-3-(5-(trifluoromethyl)-1H-pyrrolo[2,3-b]pyridin-3-yl)acrylamide] | > 10000 | 1000 to 10000
N#C/C(=C\c1c[nH]c2ncc(Cl)cc12)C(=O)NCc1ccc(F)cc1 [Example 72, (E)-3-(5-chloro-1H-pyrrolo[2,3-b]pyridin-3-yl)-2-cyano-N-(4-fluorobenzyl)acrylamide] | 1000 to 10000 | 1000 to 10000
N#C/C(=C\c1c[nH]c2ncc(Cl)cc12)C(=O)NCc1ccccc1 [Example 73, (E)-N-benzyl-3-(5-chloro-1H-pyrrolo[2,3-b]pyridin-3-yl)-2-cyanoacrylamide] | 1000 to 10000 | 1000 to 10000
N#C/C(=C\c1c[nH]c2ncc(Cl)cc12)C(=O)NCc1ccccc1Cl [Example 74, (E)-3-(5-chloro-1H-pyrrolo[2,3-b]pyridin-3-yl)-N-(2-chlorobenzyl)-2-cyanoacrylamide] | > 10000 | 1000 to 10000
N#C/C(=C\c1c[nH]c2ncc(Cl)cc12)C(=O)NCc1cc(F)cc(F)c1 [Example 75, (E)-3-(5-chloro-1H-pyrrolo[2,3-b]pyridin-3-yl)-2-cyano-N-(3,5-difluorobenzyl)acrylamide] | > 10000 | 1000 to 10000
C[C@@H](NC(=O)/C(C#N)=C/c1c[nH]c2ncc(Cl)cc12)c1ccc(F)cc1 [Example 76, (R,E)-3-(5-chloro-1H-pyrrolo[2,3-b]pyridin-3-yl)-2-cyano-N-(1-(4-fluorophenyl)ethyl)acrylamide] | 500 to 1000 | 100 to 500
CC[C@@H](NC(=O)/C(C#N)=C/c1c[nH]c2ncc(Cl)cc12)c1ccccc1 [Example 77, (R,E)-3-(5-chloro-1H-pyrrolo[2,3-b]pyridin-3-yl)-2-cyano-N-(1-phenylpropyl)acrylamide] | 1000 to 10000 | 100 to 500
C[C@@H](NC(=O)/C(C#N)=C/c1c[nH]c2nccc(Cl)c12)c1ccc(F)cc1 [Example 78, (R,E)-3-(4-chloro-1H-pyrrolo[2,3-b]pyridin-3-yl)-2-cyano-N-(1-(4-fluorophenyl)ethyl)acrylamide] | 500 to 1000 | 100 to 500
C[C@@H](NC(=O)/C(C#N)=C/c1c[nH]c2ncc(Br)cc12)c1ccc(F)cc1 [Example 79, (R,E)-3-(5-bromo-1H-pyrrolo[2,3-b]pyridin-3-yl)-2-cyano-N-(1-(4-fluorophenyl)ethyl)acrylamide] | 1000 to 10000 | 100 to 500
COc1ccc([C@@H](C)NC(=O)/C(C#N)=C/c2c[nH]c3ncc(Br)cc23)cc1OC [Example 80, (R,E)-3-(5-bromo-1H-pyrrolo[2,3-b]pyridin-3-yl)-2-cyano-N-(1-(3,4-dimethoxyphenyl)ethyl)acrylamide] | > 10000 | 50 to 100
COc1ccc([C@@H](C)NC(=O)/C(C#N)=C/c2c[nH]c3ncc(O)cc23)cc1OC [Example 81, (R,E)-2-cyano-N-(1-(3,4-dimethoxyphenyl)ethyl)-3-(5-hydroxy-1H-pyrrolo[2,3-b]pyridin-3-yl)acrylamide] | 1000 to 10000 | ≤ 50
COc1ccc([C@@H](C)NC(=O)/C(C#N)=C/c2c[nH]c3ncc(C(=O)N4CCOCC4)cc23)cc1OC [Example 82] | > 10000 | 100 to 500
COc1ccc([C@@H](C)NC(=O)/C(C#N)=C/c2c[nH]c3ncc(C(=O)N4CCN(C)CC4)cc23)cc1OC [Example 83, (R,E)-2-cyano-N-(1-(3,4-dimethoxyphenyl)ethyl)-3-(5-(4-methylpiperazine-1-carbonyl)-1H-pyrrolo[2,3-b]pyridin-3-yl)acrylamide] | > 10000 | 100 to 500
